{"source": "ChEMBL document CHEMBL1909294", "about": "“Translating clinical findings into knowledge in drug safety evaluation--drug induced liver injury prediction system (DILIps)” (PLoS Comput Biol, 2011);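 for HepSE bilirubinemia: bilirubinemia hepatic side effect score drawn from the DILIps training data, a prediction system for drug-induced liver injury; call rule not given here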;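 for HepSE cholecystitis: Cholecystitis-related hepatic side effect score drawn from the DILIps (drug-induced liver injury prediction) training data set; call rule not given here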;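 for HepSE cholelithiasis: hepatic side effect score for cholelithiasis, drawn from the DILIps training data for predicting drug-induced liver injury; call rule not given here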;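 for HepSE cirrhosis: cirrhosis hepatic side effect score taken from the DILIps (drug-induced liver injury prediction) training set; call rule not given here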; for HepSE hepatic failure: call rule not given here;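 for HepSE hepatic necrosis: score of hepatic side effects for hepatic necrosis, drawn from the training data of DILIps, a prediction system for drug-induced liver injury; call rule not given here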;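 for HepSE hepatitis: Hepatitis-related hepatic side effect score taken from the training data of DILIps, a prediction system for drug-induced liver injury; call rule not given here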;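 for HepSE hepatomegaly: hepatic side effect score for hepatomegaly, taken from the training set of the DILIps drug-induced liver injury prediction system; call rule not given here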;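 for HepSE jaundice: Jaundice-related hepatic side-effect score drawn from the training data of the DILIps (drug-induced liver injury prediction system); call rule not given here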; for HepSE liver disease: call rule not given here;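 for HepSE liver fatty: hepatic side effect score for fatty liver, taken from the DILIps training set for predicting drug-induced liver injury; call rule not given here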", "key": {"[1]": {"system": "Hepatotoxicity"}, "[2]": {"system": "Hepatotoxicity", "remark": "listed apart in the source"}, "[3]": {"system": "Hepatotoxicity", "remark": "listed apart in the source"}, "[4]": {"system": "Hepatotoxicity", "remark": "listed apart in the source"}, "[5]": {"system": "Hepatotoxicity", "remark": "listed apart in the source"}, "[6]": {"system": "Hepatotoxicity", "remark": "listed apart in the source"}, "[7]": {"system": "Hepatotoxicity", "remark": "listed apart in the source"}, "[8]": {"system": "Hepatotoxicity", "remark": "listed apart in the source"}, "[9]": {"system": "Hepatotoxicity", "remark": "listed apart in the source"}, "[10]": {"system": "Hepatotoxicity", "remark": "listed apart in the source"}, "[11]": {"system": "Hepatotoxicity", "remark": "listed apart in the source"}, "[12]": {"system": "Hepatotoxicity", "remark": "listed apart in the source"}}, "data": [{"smiles": "COc1ccc(CCN(C)CCCC(C#N)(c2ccc(OC)c(OC)c2)C(C)C)cc1OC", "note": "(stereo unspecified)", "values": [{"measurement": "HepSE_bilirubinemia", "setting": "[1]", "value": 0}, {"measurement": "HepSE_cholecystitis", "setting": "[2]", "value": 0}, {"measurement": "HepSE_cholelithiasis", "setting": "[3]", "value": 0}, {"measurement": "HepSE_cirrhosis", "setting": "[4]", "value": 0}, {"measurement": "HepSE_hepatic failure", "setting": "[5]", "value": 0}, {"measurement": "HepSE_hepatic necrosis", "setting": "[6]", "value": 0}, {"measurement": "HepSE_hepatitis", "setting": "[7]", "value": 1}, {"measurement": "HepSE_hepatomegaly", "setting": "[8]", "value": 0}, {"measurement": "HepSE_jaundice", "setting": "[9]", "value": 1}, {"measurement": "HepSE_liver disease", "setting": "[10]", "value": 0}, {"measurement": "HepSE_liver fatty", "setting": "[11]", "value": 0}, {"measurement": "HepSE_Combined Scores", "setting": "[12]", "value": 2}]}, {"smiles": "CC(C)NCC(O)COc1ccc(CC(N)=O)cc1", "note": "(stereo unspecified) [ATENOLOL]", "values": [{"measurement": "HepSE_bilirubinemia", "setting": "[1]; Liver", "value": 0}, {"measurement": "HepSE_cholecystitis", "setting": "[2]; Liver", "value": 0}, {"measurement": "HepSE_cholelithiasis", "setting": "[3]; Liver", "value": 0}, {"measurement": "HepSE_cirrhosis", "setting": "[4]; Liver", "value": 0}, {"measurement": "HepSE_hepatic failure", "setting": "[5]; Liver", "value": 0}, {"measurement": "HepSE_hepatic necrosis", "setting": "[6]; Liver", "value": 0}, {"measurement": "HepSE_hepatitis", "setting": "[7]; Liver", "value": 0}, {"measurement": "HepSE_hepatomegaly", "setting": "[8]; Liver", "value": 0}, {"measurement": "HepSE_jaundice", "setting": "[9]; Liver", "value": 0}, {"measurement": "HepSE_liver disease", "setting": "[10]; Liver", "value": 0}, {"measurement": "HepSE_liver fatty", "setting": "[11]; Liver", "value": 0}, {"measurement": "HepSE_Combined Scores", "setting": "[12]; Liver", "value": 0}]}, {"smiles": "CN1[C@@H]2C[C@@H](OC(=O)[C@H](CO)c3ccccc3)C[C@H]1[C@@H]1O[C@@H]12", "note": "[SCOPOLAMINE]", "values": [{"measurement": "HepSE_bilirubinemia", "setting": "[1]; Liver", "value": 0}, {"measurement": "HepSE_cholecystitis", "setting": "[2]; Liver", "value": 0}, {"measurement": "HepSE_cholelithiasis", "setting": "[3]; Liver", "value": 0}, {"measurement": "HepSE_cirrhosis", "setting": "[4]; Liver", "value": 0}, {"measurement": "HepSE_hepatic failure", "setting": "[5]; Liver", "value": 0}, {"measurement": "HepSE_hepatic necrosis", "setting": "[6]; Liver", "value": 0}, {"measurement": "HepSE_hepatitis", "setting": "[7]; Liver", "value": 0}, {"measurement": "HepSE_hepatomegaly", "setting": "[8]; Liver", "value": 0}, {"measurement": "HepSE_jaundice", "setting": "[9]; Liver", "value": 0}, {"measurement": "HepSE_liver disease", "setting": "[10]; Liver", "value": 0}, {"measurement": "HepSE_liver fatty", "setting": "[11]; Liver", "value": 0}, {"measurement": "HepSE_Combined Scores", "setting": "[12]; Liver", "value": 0}]}, {"smiles": "CN1C(=O)CN=C(c2ccccc2)c2cc(Cl)ccc21", "note": "[DIAZEPAM]", "values": [{"measurement": "HepSE_bilirubinemia", "setting": "[1]; Liver", "value": 0}, {"measurement": "HepSE_cholecystitis", "setting": "[2]; Liver", "value": 0}, {"measurement": "HepSE_cholelithiasis", "setting": "[3]; Liver", "value": 0}, {"measurement": "HepSE_cirrhosis", "setting": "[4]; Liver", "value": 0}, {"measurement": "HepSE_hepatic failure", "setting": "[5]; Liver", "value": 0}, {"measurement": "HepSE_hepatic necrosis", "setting": "[6]; Liver", "value": 0}, {"measurement": "HepSE_hepatitis", "setting": "[7]; Liver", "value": 0}, {"measurement": "HepSE_hepatomegaly", "setting": "[8]; Liver", "value": 0}, {"measurement": "HepSE_jaundice", "setting": "[9]; Liver", "value": 1}, {"measurement": "HepSE_liver disease", "setting": "[10]; Liver", "value": 0}, {"measurement": "HepSE_liver fatty", "setting": "[11]; Liver", "value": 0}, {"measurement": "HepSE_Combined Scores", "setting": "[12]; Liver", "value": 1}]}, {"smiles": "CC(C)c1nc(CN(C)C(=O)N[C@H](C(=O)N[C@@H](Cc2ccccc2)C[C@H](O)[C@H](Cc2ccccc2)NC(=O)OCc2cncs2)C(C)C)cs1", "note": "[RITONAVIR]", "values": [{"measurement": "HepSE_cholecystitis", "setting": "[2]", "value": 0}, {"measurement": "HepSE_cholelithiasis", "setting": "[3]", "value": 0}, {"measurement": "HepSE_cirrhosis", "setting": "[4]", "value": 0}, {"measurement": "HepSE_hepatic necrosis", "setting": "[6]", "value": 0}, {"measurement": "HepSE_hepatitis", "setting": "[7]", "value": 1}, {"measurement": "HepSE_hepatomegaly", "setting": "[8]", "value": 1}, {"measurement": "HepSE_jaundice", "setting": "[9]", "value": 1}, {"measurement": "HepSE_liver disease", "setting": "[10]", "value": 0}, {"measurement": "HepSE_liver fatty", "setting": "[11]", "value": 0}, {"measurement": "HepSE_Combined Scores", "setting": "[12]", "value": 3}]}, {"smiles": "CCCCc1oc2ccccc2c1C(=O)c1cc(I)c(OCCN(CC)CC)c(I)c1", "note": "[AMIODARONE]", "values": [{"measurement": "HepSE_bilirubinemia", "setting": "[1]; Liver", "value": 0}, {"measurement": "HepSE_cholecystitis", "setting": "[2]; Liver", "value": 0}, {"measurement": "HepSE_cholelithiasis", "setting": "[3]; Liver", "value": 0}, {"measurement": "HepSE_cirrhosis", "setting": "[4]; Liver", "value": 1}, {"measurement": "HepSE_hepatic failure", "setting": "[5]; Liver", "value": 0}, {"measurement": "HepSE_hepatic necrosis", "setting": "[6]; Liver", "value": 0}, {"measurement": "HepSE_hepatitis", "setting": "[7]; Liver", "value": 1}, {"measurement": "HepSE_hepatomegaly", "setting": "[8]; Liver", "value": 1}, {"measurement": "HepSE_jaundice", "setting": "[9]; Liver", "value": 0}, {"measurement": "HepSE_liver disease", "setting": "[10]; Liver", "value": 1}, {"measurement": "HepSE_liver fatty", "setting": "[11]; Liver", "value": 0}, {"measurement": "HepSE_Combined Scores", "setting": "[12]; Liver", "value": 5}]}, {"smiles": "NCCCC(O)(P(=O)(O)O)P(=O)(O)O", "note": "[ALENDRONIC ACID]", "values": [{"measurement": "HepSE_bilirubinemia", "setting": "[1]; Liver", "value": 0}, {"measurement": "HepSE_cholecystitis", "setting": "[2]; Liver", "value": 0}, {"measurement": "HepSE_cholelithiasis", "setting": "[3]; Liver", "value": 0}, {"measurement": "HepSE_cirrhosis", "setting": "[4]; Liver", "value": 0}, {"measurement": "HepSE_hepatic failure", "setting": "[5]; Liver", "value": 0}, {"measurement": "HepSE_hepatic necrosis", "setting": "[6]; Liver", "value": 0}, {"measurement": "HepSE_hepatitis", "setting": "[7]; Liver", "value": 0}, {"measurement": "HepSE_hepatomegaly", "setting": "[8]; Liver", "value": 0}, {"measurement": "HepSE_jaundice", "setting": "[9]; Liver", "value": 0}, {"measurement": "HepSE_liver disease", "setting": "[10]; Liver", "value": 0}, {"measurement": "HepSE_liver fatty", "setting": "[11]; Liver", "value": 0}, {"measurement": "HepSE_Combined Scores", "setting": "[12]; Liver", "value": 0}]}, {"smiles": "CN(C)CCOC(c1ccccc1)c1ccccc1", "note": "[DIPHENHYDRAMINE]", "values": [{"measurement": "HepSE_bilirubinemia", "setting": "[1]; Liver", "value": 0}, {"measurement": "HepSE_cholecystitis", "setting": "[2]; Liver", "value": 0}, {"measurement": "HepSE_cholelithiasis", "setting": "[3]; Liver", "value": 0}, {"measurement": "HepSE_cirrhosis", "setting": "[4]; Liver", "value": 0}, {"measurement": "HepSE_hepatic failure", "setting": "[5]; Liver", "value": 0}, {"measurement": "HepSE_hepatic necrosis", "setting": "[6]; Liver", "value": 0}, {"measurement": "HepSE_hepatitis", "setting": "[7]; Liver", "value": 0}, {"measurement": "HepSE_hepatomegaly", "setting": "[8]; Liver", "value": 0}, {"measurement": "HepSE_jaundice", "setting": "[9]; Liver", "value": 0}, {"measurement": "HepSE_liver disease", "setting": "[10]; Liver", "value": 0}, {"measurement": "HepSE_liver fatty", "setting": "[11]; Liver", "value": 0}, {"measurement": "HepSE_Combined Scores", "setting": "[12]; Liver", "value": 0}]}, {"smiles": "Nc1ccc(S(N)(=O)=O)cc1", "note": "[SULFANILAMIDE]", "values": [{"measurement": "HepSE_bilirubinemia", "setting": "[1]; Liver", "value": 0}, {"measurement": "HepSE_cholecystitis", "setting": "[2]; Liver", "value": 0}, {"measurement": "HepSE_cholelithiasis", "setting": "[3]; Liver", "value": 0}, {"measurement": "HepSE_cirrhosis", "setting": "[4]; Liver", "value": 0}, {"measurement": "HepSE_hepatic failure", "setting": "[5]; Liver", "value": 0}, {"measurement": "HepSE_hepatic necrosis", "setting": "[6]; Liver", "value": 0}, {"measurement": "HepSE_hepatitis", "setting": "[7]; Liver", "value": 0}, {"measurement": "HepSE_hepatomegaly", "setting": "[8]; Liver", "value": 0}, {"measurement": "HepSE_jaundice", "setting": "[9]; Liver", "value": 0}, {"measurement": "HepSE_liver disease", "setting": "[10]; Liver", "value": 0}, {"measurement": "HepSE_liver fatty", "setting": "[11]; Liver", "value": 0}, {"measurement": "HepSE_Combined Scores", "setting": "[12]; Liver", "value": 0}]}]}
